A word on the IC50: it is the point on the concentration scale where inhibition reaches its midpoint. A high value points to lower potency.

Holding throughout (type): cell-based
Experiment [1] relates to SW480, human primary colon cancer cell line. The experiment can be described thus: MTT assay, cytotoxicity in SW480. Conditions: for IC50: MTT, 72 h, mean ± SD; for SW480 SI (selectivity index): SI = IC50 HaCaT / IC50 SW480. The protocol: (§1) The human cell lines SW480 (primary colon cancer), SW620 (lymph node metastatic colon cancer from the same patient as primary cancer cells), PC3 (metastatic prostate cancer), and HaCaT (immortalized keratinocytes) were obtained from the American Type Culture Collection (ATCC, Rockville, USA). The SW480 and SW620 cells were grown in MEM (ThermoSci, USA), PC3 in RPMI 1640, and HaCaT in DMEM High Glucose (Biowest SAS, France) supplemented with 10% foetal bovine serum (FBS), HEPES (20 mM), and antibiotics (100 U mL^–1 of penicillin and 100 μg mL^–1 of streptomycin). The cells were incubated in a humidified incubator at 37 °C/5% CO2, until 80–90% confluence was reached.
(§2) The cell viability was assessed by using of MTT salt [3-(4,5-dimethylthiazol-2-yl)-2,5-diphenyltetrazolium bromide] converted by mitochondrial dehydrogenase, occurring in living cells. The cells were seeded in 96-well plates at a density of 1 × 10^4 cells per well and allowed to adhere for 24 h at 37 °C in a CO2 humidified incubator. Then, the medium was removed and a fresh medium with various concentrations of tested compounds (from 10 to 120 μM) was added. The untreated cells were used as the control.
(§3) After 72 h incubation, the medium was replaced with 200 μL per well of free serum medium containing 0.5 mg mL^–1 MTT and incubated for 4 h at 37 °C in a CO2 humidified incubator. Subsequently, the medium was removed and dimethyl sulfoxide with isopropanol (1:1) was added to dissolve the formazan crystals. The optical density was measured using a UVM 340 reader (ASYS Hitech GmbH, Austria) at a wavelength of 570 nm. The experiments were repeated three times. The cell viability was calculated as the percent of MTT reduced in treated cells versus control cells (untreated cells). The number of viable cells cultured without tested compounds was assumed as 100%. The decreased relative MTT level indicates decreased cell viability. The IC50 values were estimated using CompuSyn version 1.0.

In experiment [2] the test system is SW620, human metastatic colon cancer cell line. Description: MTT assay, cytotoxicity in SW620. Conditions: for IC50: MTT, 72 h, mean ± SD; for SW620 SI (selectivity index): SI = IC50 HaCaT / IC50 SW620. How it is done: as §1, §2, §3
In experiment [3] the test system is PC3, human prostate cancer cell line. Description: MTT assay, cytotoxicity in PC3. As to conditions: for IC50: MTT, 72 h, mean ± SD; for PC3 SI (selectivity index): SI = IC50 HaCaT / IC50 PC3. How it is done: as §1, §2, §3
For orientation: Tetrazolium dyes change colour on reduction, which living cells bring about.

In experiment [4] the test system is HaCaT, human immortalized keratinocyte cell line. Description: MTT assay, cytotoxicity in HaCaT. Conditions: 72 h, mean ± SD, nontumor cells. The protocol:
as §1, §2, §3

Turning to `O=c1[nH]c(=O)n([C@H]2C[C@H](O)[C@@H](CO)O2)cc1F` [FLO, floxuridine, reference compound], the IC50 came out at 16 ± 1.2 µM in experiment [1] (Homo sapiens, SW480); 8.8 ± 0.69 µM in experiment [2] (Homo sapiens, SW-620); 14 ± 0.57 µM in experiment [3] (Homo sapiens); 38 ± 0.72 µM in experiment [4] (Homo sapiens, HaCaT). For the same compound, the “SW480 SI (selectivity index)” value in experiment [1] is 2.4. Also, in experiment [2], the “SW620 SI (selectivity index)” value was determined as 4.3. In addition, the “PC3 SI (selectivity index)” value in experiment [3] worked out at 2.7.
In the case of `CC[C@@H](C(=O)[C@@H](C)[C@@H](O)[C@H](C)CCc1ccc(C)c(O)c1C(=O)OCCCCCCBr)[C@H]1O[C@](CC)([C@H]2CC[C@](O)(CC)[C@H](C)O2)C[C@@H]1C` [Compound 5], the IC50 is 42 ± 1.6 µM in experiment [1] (Homo sapiens, SW480); 34 ± 1.4 µM in experiment [2] (Homo sapiens, SW-620); 18 ± 0.98 µM in experiment [3] (Homo sapiens); 50 ± 0.34 µM in experiment [4] (Homo sapiens, HaCaT). In experiment [1], the “SW480 SI (selectivity index)” value stood at 1.2. Besides, the “SW620 SI (selectivity index)” value in experiment [2] is reported as 1.5. Besides, the “PC3 SI (selectivity index)” value in experiment [3] came to 2.8.
In the case of `O=c1[nH]c(=O)n(CCCCBr)cc1F` [Compound 1], the IC50 in experiment [1] (Homo sapiens, SW480) is 36 ± 0.79 µM; in experiment [2] (Homo sapiens, SW-620), 75 ± 2.7 µM; in experiment [3] (Homo sapiens), 308 ± 5.2 µM; in experiment [4] (Homo sapiens, HaCaT), 179 ± 4.3 µM. Also, the “SW480 SI (selectivity index)” value in experiment [1] came to 5.0. The “SW620 SI (selectivity index)” value in experiment [2] was determined as 2.4. Moreover, in experiment [3], the “PC3 SI (selectivity index)” value stood at 0.6.
For the compound `BrCCC[P+](c1ccccc1)(c1ccccc1)c1ccccc1.[Br-]` [TPP, (3-bromopropyl)triphenylphosphonium bromide, reference compound], the IC50 in experiment [1] (Homo sapiens, SW480) was found to be 46 ± 1.1 µM; in experiment [2] (Homo sapiens, SW-620) it was 39 ± 2.5 µM; in experiment [3] (Homo sapiens), 31 ± 0.98 µM; in experiment [4] (Homo sapiens, HaCaT), 26 ± 0.96 µM. In experiment [1], the “SW480 SI (selectivity index)” value was found to be 0.6. Besides, the “SW620 SI (selectivity index)” value in experiment [2] is 0.7. The “PC3 SI (selectivity index)” value in experiment [3] came to 0.8.
For the compound `COc1cccc2c1C(=O)c1c(O)c3c(c(O)c1C2=O)C[C@@](O)(C(=O)CO)C[C@@H]3O[C@H]1C[C@H](N)[C@H](O)[C@H](C)O1` [DOX, doxorubicin, reference compound], the IC50 in experiment [1] (Homo sapiens, SW480) is 0.75 ± 0.1 µM; in experiment [3] (Homo sapiens), 0.59 ± 0.02 µM; in experiment [4] (Homo sapiens, HaCaT), 0.29 ± 0.1 µM.
Take `O=C(CCCCCBr)[c-]1cccc1.[Fe+2].c1cc[cH-]c1` [FER, (6-bromo-1-oxohexyl)ferrocene, reference compound]: the IC50 in experiment [1] was found to be 61 ± 0.98 µM; in experiment [2], 55 ± 0.7 µM; in experiment [3], 59 ± 0.78 µM; in experiment [4], 115 ± 0.95 µM. Besides, the “SW480 SI (selectivity index)” value in experiment [1] was determined as 1.9. The “SW620 SI (selectivity index)” value in experiment [2] was 2.1. Also, the “PC3 SI (selectivity index)” value in experiment [3] was found to be 1.9.
Regarding `C=C(C)[C@@H]1CC[C@]2(C(=O)O)CC[C@]3(C)[C@H](CC[C@@H]4[C@@]5(C)CC[C@H](O)C(C)(C)[C@@H]5CC[C@]43C)[C@@H]12` [BET, betulinic acid, reference compound], the IC50 was 105 ± 7 µM in experiment [1] (Homo sapiens, SW480); 65 ± 3.7 µM in experiment [2] (Homo sapiens, SW-620); 71 ± 5.9 µM in experiment [3] (Homo sapiens); 108 ± 1.3 µM in experiment [4] (Homo sapiens, HaCaT). Further, the “SW480 SI (selectivity index)” value in experiment [1] turned out to be 1.0. Besides, the “SW620 SI (selectivity index)” value in experiment [2] was determined as 1.7. Also, the “PC3 SI (selectivity index)” value in experiment [3] is on record as 1.5.
Take `C=C(C)[C@@H]1CC[C@]2(C(=O)OCCCCCCOC(=O)c3c(CC[C@@H](C)[C@H](O)[C@H](C)C(=O)[C@H](CC)[C@H]4O[C@](CC)([C@H]5CC[C@](O)(CC)[C@H](C)O5)C[C@@H]4C)ccc(C)c3O)CC[C@]3(C)[C@H](CC[C@@H]4[C@@]5(C)CC[C@H](O)C(C)(C)[C@@H]5CC[C@]43C)[C@@H]12` [Compound 6, LAS–Betulinic Acid Conjugate]: the IC50 in experiment [1] (Homo sapiens, SW480) is 320 ± 8.8 µM; in experiment [2] (Homo sapiens, SW-620), 40 ± 2.1 µM; in experiment [3] (Homo sapiens), 200 ± 1.8 µM; in experiment [4] (Homo sapiens, HaCaT), 15 ± 0.59 µM. Besides, in experiment [1], the “SW480 SI (selectivity index)” value worked out at 0.05. Besides, the “SW620 SI (selectivity index)” value in experiment [2] is listed as 0.4. Also, the “PC3 SI (selectivity index)” value in experiment [3] stood at 0.1.
On to `O=c1[nH]cc(F)c(=O)[nH]1` [5FU, 5-fluorouracil, reference compound], for which the IC50 is 43 ± 3.1 µM in experiment [1] (Homo sapiens, SW480); 39 ± 1.2 µM in experiment [2] (Homo sapiens, SW-620); 11 ± 0.97 µM in experiment [3] (Homo sapiens); 52 ± 1.6 µM in experiment [4] (Homo sapiens, HaCaT). In addition, the “SW480 SI (selectivity index)” value in experiment [1] came to 1.2. Further, the “SW620 SI (selectivity index)” value in experiment [2] came out at 1.3. For the same compound, in experiment [3], the “PC3 SI (selectivity index)” value is given as 4.7.
Regarding `CC[C@@H](C(=O)[C@@H](C)[C@@H](O)[C@H](C)CCc1ccc(C)c(O)c1C(=O)OCCOCCn1cc(F)c(=O)[nH]c1=O)[C@H]1O[C@](CC)([C@H]2CC[C@](O)(CC)[C@H](C)O2)C[C@@H]1C` [Compound 10, LAS–5-Fluorouracil Conjugate], the 50% inhibitory concentration (IC50) amounted to 22 ± 2.2 µM in experiment [1] (Homo sapiens, SW480); 11 ± 1.4 µM in experiment [2] (Homo sapiens, SW-620); 12 ± 0.13 µM in experiment [3] (Homo sapiens); 12 ± 0.59 µM in experiment [4] (Homo sapiens, HaCaT). Besides, the “SW480 SI (selectivity index)” value in experiment [1] came to 0.5. Further, in experiment [2], the “SW620 SI (selectivity index)” value is listed as 1.1. Also, the “PC3 SI (selectivity index)” value in experiment [3] came to 1.0.
With `O=c1[nH]c(=O)n(CCOCCBr)cc1F` [Compound 3, 1-(2-(2-Bromoethoxy)ethyl)-5-fluorouracil], the IC50 stood at 55 ± 3.5 µM in experiment [1] (Homo sapiens, SW480); 47 ± 3.8 µM in experiment [2] (Homo sapiens, SW-620); 42 ± 2.3 µM in experiment [3] (Homo sapiens); 104 ± 2.2 µM in experiment [4] (Homo sapiens, HaCaT). Besides, the “SW480 SI (selectivity index)” value in experiment [1] was 1.9. In addition, the “SW620 SI (selectivity index)” value in experiment [2] was found to be 2.2. The “PC3 SI (selectivity index)” value in experiment [3] is on record as 2.5.
In the case of `O=c1cc(CO)occ1O` [KOJ, kojic acid, reference compound], the IC50 was 119 ± 2.8 µM in experiment [1] (Homo sapiens, SW480); 94 ± 4 µM in experiment [2] (Homo sapiens, SW-620); 56 ± 3.3 µM in experiment [3] (Homo sapiens); 225 ± 7.1 µM in experiment [4] (Homo sapiens, HaCaT). Also, the “SW480 SI (selectivity index)” value in experiment [1] stood at 1.9. The “SW620 SI (selectivity index)” value in experiment [2] is 2.4. Moreover, the “PC3 SI (selectivity index)” value in experiment [3] was determined as 4.0.
On to `O=c1[nH]c(=O)n(CCCCCCBr)cc1F` [Compound 2, 1-(6-Bromohexyl)-5-fluorouracil], for which the concentration for half-maximal inhibition (IC50) was 103 ± 3.4 µM in experiment [1] (Homo sapiens, SW480); 36 ± 0.83 µM in experiment [2] (Homo sapiens, SW-620); 3.1 ± 0.15 µM in experiment [3] (Homo sapiens); 224 ± 2.8 µM in experiment [4] (Homo sapiens, HaCaT). In experiment [1], the “SW480 SI (selectivity index)” value came out at 2.2. For the same compound, the “SW620 SI (selectivity index)” value in experiment [2] came out at 6.2. Further, the “PC3 SI (selectivity index)” value in experiment [3] came out at 73.
For `O=c1cc(CCl)occ1O` [Compound 4], the half-inhibitory concentration (IC50) amounted to 28 ± 1.8 µM in experiment [1] (Homo sapiens, SW480); 20 ± 2.6 µM in experiment [2] (Homo sapiens, SW-620); 20 ± 1.5 µM in experiment [3] (Homo sapiens); 39 ± 0.45 µM in experiment [4] (Homo sapiens, HaCaT). Moreover, the “SW480 SI (selectivity index)” value in experiment [1] came to 1.4. Further, the “SW620 SI (selectivity index)” value in experiment [2] was 2.0. Also, the “PC3 SI (selectivity index)” value in experiment [3] is 2.0.
Turning to `CC[C@@H](C(=O)[C@@H](C)[C@@H](O)[C@H](C)CCc1ccc(C)c(O)c1C(=O)OC[C@H]1O[C@@H](n2cc(F)c(=O)[nH]c2=O)C[C@@H]1O)[C@H]1O[C@](CC)([C@H]2CC[C@](O)(CC)[C@H](C)O2)C[C@@H]1C` [Compound 11, LAS–Floxuridine Conjugate], the IC50 in experiment [1] (Homo sapiens, SW480) was 31 ± 1.2 µM; in experiment [2] (Homo sapiens, SW-620) it was 19 ± 2 µM; in experiment [3] (Homo sapiens), 13 ± 1.9 µM; in experiment [4] (Homo sapiens, HaCaT), 50 ± 0.59 µM. The “SW480 SI (selectivity index)” value in experiment [1] came out at 1.6. In addition, the “SW620 SI (selectivity index)” value in experiment [2] came to 2.6. Besides, in experiment [3], the “PC3 SI (selectivity index)” value was 3.8.

For the origin of these results see paper PMC8771711, “Synthesis of Lasalocid-Based Bioconjugates and Evaluation of Their Anticancer Activity” (ACS Omega, 2022).
